Several values for one entry are separate records, joined by “and”; a condition that tells them apart may be missing. Identical values can stand only once.
Key:
[1] = Hematology after face-mask inhalation in beagle dogs; format: in vivo; conditions: inhalation Day 0 and 7, animal and Avg lines, samplings not labelled
Experimental: (§1) The objective of the study is to determine the maximum tolerated dose (MTD) or maximum feasible dose (MFD) of inhaled bismuth ethanedithiol (BisEDT) after face-mask inhalation exposure (up to 60 min of exposure) in male and female beagle dogs. Animals will be monitored for up to 14 days following the first day of exposure and blood will be collected at predetermined timepoints to analyze the pharmacokinetics of BisEDT. In addition, a coagulation panel will be conducted prior to necropsy. At the conclusion of the study animals will be euthanized and undergo necropsy during which the respiratory tract will be harvested for bioanalytical and histopathological analysis. Results obtained will inform a follow up repeated dose GLP study. This test article is currently being developed as a novel formulation of a broad spectrum antimicrobial/antibiofilm agent, indicated for the treatment of lung infections in patients with cystic fibrosis.
(§2) Once adequately conditioned to the restraint device and face-masks, the animals are individually exposed to the test article aerosols. Animals receive a single face-mask inhalation exposure in a ramp study design to test article aerosols for up to 60 min. Animal observations during and post exposure determine the tolerance of inhaled BisEDT aerosols.
(§3) Group 1 (vehicle) are exposed to a vehicle atmosphere for 30 minutes. Group 2 (50 μg/kg) are exposed to BisEDT for 30 minutes. Target concentrations and exposure durations for Groups 3-5 are based on the presence of any toxicity via clinical observations or gross necropsy findings. In each of Groups 3-5, if no adverse clinical signs of toxicity are observed, the next groups' exposure will be conducted at a higher target dose. If adverse clinical signs of toxicity are observed, the next groups' exposure will be conducted at a lower target dose. This approach is repeated for all BisEDT doses. The final documented exposure duration is the maximum tolerated dose or the maximum feasible dose.
(§4) Blood are collected for pharmacokinetic (PK) analysis prior to exposure, then at 4 hr (±5 min) post exposure, and again on Day 1, Day 2, Day 7 (pre- and 4 hr (±5 min)-post exposure), Day 8, Day 9, Day 10, Day 11, Day 12, Day 13, and Day 14. A total of 0.25 mL is collected at each timepoint. No PK blood is collected from the vehicle control (Group 1) animals; only animals exposed to BisEDT have blood collected for PK analysis. Collected samples are flash frozen without processing for shipment to Medpace for bioanalytical analysis. Additional blood is collected from all animals in all groups for hematology (1 mL) and clinical chemistry (1 mL) at baseline, Day 7 (pre-exposure), and again at euthanasia. Blood (2-2 mL) is collected from all animals at necropsy for coagulation analysis (d-Dimer, fibrinogen, PT, and PTT).
For hematology analyses, whole blood (1 ml) will be collected with vacutainers containing K3EDTA as an anticoagulant.
Hematology samples are analyzed by automated (ADVIA™ 120 Hematology System, Siemens Medical Solutions Diagnostics, Tarrytown, NY) analyses. Disposition will be recorded on the sample processing form.

[2] = Clinical chemistry after face-mask inhalation in beagle dogs; format: in vivo; conditions: times not given
Experimental: as §1, §2, §3, §4
For clinical chemistry analyses, whole blood (1 mL) is placed into serum separator or clot tube and […] by centrifugation at a minimum of 1300 g at 2 to 8° C. for 10 (±1) min. Plasma samples are stored at −70 to −90° C. until analysis.
Clinical chemistry samples are analyzed on a Hitachi Modular Analytics Clinical Chemistry System (Roche Diagnostics, Indianapolis, IN).

[3] = dogs Group 2 (target 50 μg/kg; lung deposited 55-56 ug/kg)
[4] = Grp 2, dogs 2001 male, 2002 female, 3 samplings each
[5] = Grp 3, dogs 3001 male, 3002 female, 3 samplings each

For `C1C[S][Bi]([S]CC[S][Bi]2[S]CC[S]2)[S]1` [BisEDT, bismuth-1,2-ethanedithiol], the HGB [1, 3] was 15.6 g/dL and 15.0 g/dL and 14.2 g/dL and 16.4 g/dL and 14.3 g/dL, the LUC [1, 3] was 0.01 ^3/uL and 0.02 ^3/uL and the MCH [1, 3] was 22.8 pg and 23.2 pg and 22.7 pg and 22.3 pg and 21.9 pg. For the same molecule, the MCHC [1, 3] was 34.1 g/dL and 34.9 g/dL and 33.4 g/dL and 34.4 g/dL and 33.2 g/dL, the MONO [1, 3] was 0.63 ^3/uL and 0.67 ^3/uL and 0.53 ^3/uL and 0.50 ^3/uL and 0.51 ^3/uL and the LUC ([1]; dogs Group 4 (lung deposited 176-197 ug/kg)) was 0.01 ^3/uL and 0.02 ^3/uL. For the same molecule, the AGR [2, 4] was 1.9 and 2.0 and 1.8 and 1.7 and 2.3, the ALB [2, 4] was 3.3 g/dL and 3.4 g/dL and 3.5 g/dL and 3.6 g/dL and 3.7 g/dL and the ALT [2, 4] was 22 IU/L and 18 IU/L and 29 IU/L and 27 IU/L. The AST [2, 4] was 48 IU/L and 36 IU/L and 35 IU/L and 41 IU/L and 38 IU/L, the BUN [2, 4] was 12 mg/dL and 16 mg/dL and 15 mg/dL and 13 mg/dL and 14 mg/dL and the CA2 [2, 4] was 10.9 mg/dL and 10.8 mg/dL and 11.0 mg/dL and 10.6 mg/dL. The CHOL [2, 4] was 168 mg/dL and 167 mg/dL and 152 mg/dL and 138 mg/dL and 123 mg/dL and 114 mg/dL, the CREA [2, 4] was 0.7 mg/dL and 0.6 mg/dL and the GGT [2, 4] was 3 IU/L. For the same molecule, the GLOB [2, 4] was 1.7 g/dL and 2.0 g/dL and 1.9 g/dL and 1.6 g/dL, the GLUC [2, 4] was 91 mg/dL and 97 mg/dL and 102 mg/dL and 95 mg/dL and 98 mg/dL and 89 mg/dL and the K [2, 4] was 4.5 mmo/L and 4.9 mmo/L and 4.7 mmo/L and 5.0 mmo/L and 5.2 mmo/L and 4.6 mmo/L. The Na [2, 4] was 149 mmo/L and 147 mmo/L and 148 mmo/L, the TBIL [2, 4] was 0.15 mg/dL and the TP [2, 4] was 5.0 g/dL and 5.1 g/dL and 5.5 g/dL and 5.2 g/dL and 5.3 g/dL. For the same molecule, the AGR ([2]; Grp 2 Avg, 3 samplings) was 1.8 and 2.2 and 2.1, the ALB ([2]; Grp 2 Avg, 3 samplings) was 3.3 g/dL and 3.5 g/dL and 3.6 g/dL and the ALPK ([2]; Grp 2 Avg, 3 samplings) was 186 IU/L and 126 IU/L and 116 IU/L. For the same molecule, the ALT ([2]; Grp 2 Avg, 3 samplings) was 20 IU/L and 26 IU/L and 25 IU/L, the AST ([2]; Grp 2 Avg, 3 samplings) was 42 IU/L and 39 IU/L and 37 IU/L and the BUN ([2]; Grp 2 Avg, 3 samplings) was 13 mg/dL and 15 mg/dL. The CA2 ([2]; Grp 2 Avg, 3 samplings) was 10.9 mg/dL and 10.8 mg/dL, the CHOL ([2]; Grp 2 Avg, 3 samplings) was 153 mg/dL and 145 mg/dL and 133 mg/dL and the CREA ([2]; Grp 2 Avg, 3 samplings) was 0.7 mg/dL and 0.6 mg/dL. The GGT ([2]; Grp 2 Avg, 3 samplings) was 3 IU/L, the GLOB ([2]; Grp 2 Avg, 3 samplings) was 1.8 g/dL and 1.7 g/dL and the GLUC ([2]; Grp 2 Avg, 3 samplings) was 93 mg/dL and 98 mg/dL and 96 mg/dL. For the same molecule, the K ([2]; Grp 2 Avg, 3 samplings) was 4.8 mmo/L and 5.1 mmo/L and 4.7 mmo/L, the Na ([2]; Grp 2 Avg, 3 samplings) was 149 mmo/L and 147 mmo/L and 148 mmo/L and the TBIL ([2]; Grp 2 Avg, 3 samplings) was 0.15 mg/dL. The TP ([2]; Grp 2 Avg, 3 samplings) was 5.1 g/dL and 5.2 g/dL and 5.4 g/dL, the TRIG ([2]; Grp 2 Avg, 3 samplings) was 52 mg/dL and 60 mg/dL and 47 mg/dL and the AGR [2, 5] was 2.0 and 2.1 and 2.3 and 1.8 and 2.6. For the same molecule, the ALB [2, 5] was 3.2 g/dL and 3.4 g/dL and 3.5 g/dL and 3.7 g/dL, the ALPK [2, 5] was 142 IU/L and 135 IU/L and 121 IU/L and 164 IU/L and 90 IU/L and 176 IU/L and the ALT [2, 5] was 26 IU/L and 24 IU/L and 22 IU/L and 28 IU/L and 20 IU/L. The AST [2, 5] was 30 IU/L and 32 IU/L and 33 IU/L and 28 IU/L, the CA2 [2, 5] was 10.7 mg/dL and 10.5 mg/dL and 10.0 mg/dL and 11.2 mg/dL and 10.8 mg/dL and 10.4 mg/dL and the CHOL [2, 5] was 100 mg/dL and 111 mg/dL and 126 mg/dL and 175 mg/dL and 141 mg/dL. For the same molecule, the CREA [2, 5] was 0.6 mg/dL and 0.7 mg/dL and 1.0 mg/dL and 0.5 mg/dL and 0.9 mg/dL, the GGT [2, 5] was 3 IU/L and the GLOB [2, 5] was 1.6 g/dL and 1.7 g/dL and 1.5 g/dL and 2.0 g/dL and 1.4 g/dL. For the same molecule, the K [2, 5] was 4.7 mmo/L and 5.1 mmo/L and 5.8 mmo/L and 5.5 mmo/L and 5.3 mmo/L and 5.9 mmo/L and the Na [2, 5] was 146 mmo/L and 148 mmo/L and 149 mmo/L and 145 mmo/L.

Reference: patent US12186283B2, “Bismuth-thiol compositions and methods of use” (Microbion Corporation, priority 2018, dated 2025)
